The results in this text go back to the supplement of paper PMC10307832.

Holding throughout (assay): relative viability (nuclei count vs DMSO), 5 days (fraction); higher = more cells survive
Compound in the test “Serdemetan + Phenformin”: c1ccc2c(CCNc3ccc(Nc4ccncc4)cc3)c[nH]c2c1 [Serdemetan] + N=C(N)NC(=N)NCCc1ccccc1 [Phenformin] (partner 250 µM)
A digest of the protocol:
(§1)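 Cells from lung cancer lines were seeded into 1536-well plates and, one day later, dosed by pin tool. Treatments were either a single drug or a fixed dose of an anchor drug with five library-drug doses (not always all listed) in √10 steps. After 5 days, nuclei were stained in a one-step fixation (final 0.05% Triton X-100, 1% formaldehyde, 1 ug/ml Hoechst) and counted on 4× images, and relative viability is the treated-to-vehicle nuclei ratio, as the median of duplicate plates.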

Compound in the test “Selisistat + Bortezomib”: C1CC(C2=C(C1)C3=C(N2)C=CC(=C3)Cl)C(=O)N [Selisistat] + CC(C)C[C@H](NC(=O)[C@H](Cc1ccccc1)NC(=O)c1cnccn1)B(O)O [Bortezomib] (partner 0.002 µM)
Put shortly:
as §1

Compound in the test “Selisistat + Navitoclax”: C1CC(C2=C(C1)C3=C(N2)C=CC(=C3)Cl)C(=O)N [Selisistat] + CC1(C)CCC(c2ccc(Cl)cc2)=C(CN2CCN(c3ccc(C(=O)NS(=O)(=O)c4ccc(N[C@H](CCN5CCOCC5)CSc5ccccc5)c(S(=O)(=O)C(F)(F)F)c4)cc3)CC2)C1 [Navitoclax] (partner 0.5 µM)
Put shortly:
as §1

Compound in the test “Selisistat + Pemetrexed”: C1CC(C2=C(C1)C3=C(N2)C=CC(=C3)Cl)C(=O)N [Selisistat] + Nc1nc2[nH]cc(CCc3ccc(C(=O)N[C@@H](CCC(=O)O)C(=O)O)cc3)c2c(=O)[nH]1 [Pemetrexed] (partner 0.2 µM)
A digest of the protocol:
as §1

Turning to PC-14, the relative viability in the test with Serdemetan + Phenformin (first compound 0.04 µM) worked out at 0.59; with Serdemetan + Phenformin (first compound 0.1265 µM) it was 0.537; with Serdemetan + Phenformin (first compound 1.265 µM), 0.531; with Serdemetan + Phenformin (first compound 4 µM) it was 0.549; with Selisistat + Bortezomib (first compound 0.4 µM), 0.848; in the test with Selisistat + Bortezomib (first compound 1.265 µM), 0.713. Further, the relative viability was 0.861 with Selisistat + Bortezomib (first compound 4 µM); 0.886 in the test with Selisistat + Bortezomib (first compound 12.65 µM); 0.888 with Selisistat + Bortezomib (first compound 40 µM); 0.963 in the test with Selisistat + Navitoclax (first compound 0.4 µM); 1.04 with Selisistat + Navitoclax (first compound 1.265 µM); 1.03 with Selisistat + Navitoclax (first compound 4 µM). Also, the relative viability stood at 1.04 in the test with Selisistat + Navitoclax (first compound 12.65 µM); 1.07 in the test with Selisistat + Navitoclax (first compound 40 µM); 0.116 in the test with Selisistat + Pemetrexed (first compound 0.4 µM); 0.152 in the test with Selisistat + Pemetrexed (first compound 1.265 µM); 0.123 with Selisistat + Pemetrexed (first compound 4 µM); 0.139 with Selisistat + Pemetrexed (first compound 12.65 µM). Besides, the relative viability with Selisistat + Pemetrexed (first compound 40 µM) turned out to be 0.137.

With RERF-LC-KJ, the relative viability in the test with Serdemetan + Phenformin (first compound 0.04 µM) is 0.349; with Serdemetan + Phenformin (first compound 0.1265 µM) it was 0.507; with Serdemetan + Phenformin (first compound 0.4 µM) it was 0.389; with Serdemetan + Phenformin (first compound 1.265 µM), 0.404; in the test with Serdemetan + Phenformin (first compound 4 µM), 0.399; in the test with Selisistat + Bortezomib (first compound 0.4 µM), 1.18. The relative viability with Selisistat + Bortezomib (first compound 1.265 µM) is 1.02; with Selisistat + Bortezomib (first compound 4 µM), 0.974; with Selisistat + Bortezomib (first compound 12.65 µM), 1; in the test with Selisistat + Bortezomib (first compound 40 µM) it was 1.05; with Selisistat + Navitoclax (first compound 0.4 µM), 0.812; in the test with Selisistat + Navitoclax (first compound 1.265 µM), 1.1. Moreover, the relative viability in the test with Selisistat + Navitoclax (first compound 4 µM) turned out to be 0.84; with Selisistat + Navitoclax (first compound 12.65 µM), 0.702; with Selisistat + Navitoclax (first compound 40 µM), 0.627; with Selisistat + Pemetrexed (first compound 0.4 µM), 0.482; with Selisistat + Pemetrexed (first compound 1.265 µM) it was 0.466; with Selisistat + Pemetrexed (first compound 4 µM), 0.467. Besides, the figures for the relative viability with Selisistat + Pemetrexed (first compound 12.65 µM) and in the test with Selisistat + Pemetrexed (first compound 40 µM) were 0.466 and 0.468, respectively.

For the cell line SK-LU-1, the relative viability came to 0.484 with Serdemetan + Phenformin (first compound 0.04 µM); 0.573 with Serdemetan + Phenformin (first compound 0.1265 µM); 0.538 with Serdemetan + Phenformin (first compound 0.4 µM); 0.343 in the test with Serdemetan + Phenformin (first compound 4 µM); 1.23 with Selisistat + Bortezomib (first compound 0.4 µM); 1.27 with Selisistat + Bortezomib (first compound 4 µM). For the same cell line, the relative viability in the test with Selisistat + Bortezomib (first compound 12.65 µM) turned out to be 0.998; in the test with Selisistat + Bortezomib (first compound 40 µM) it was 1.75; with Selisistat + Navitoclax (first compound 0.4 µM), 1.08; in the test with Selisistat + Navitoclax (first compound 1.265 µM) it was 0.897; with Selisistat + Navitoclax (first compound 4 µM), 1.05; with Selisistat + Navitoclax (first compound 12.65 µM), 0.837. Besides, the relative viability with Selisistat + Navitoclax (first compound 40 µM) was determined as 0.893; in the test with Selisistat + Pemetrexed (first compound 0.4 µM) it was 0.985; in the test with Selisistat + Pemetrexed (first compound 1.265 µM), 0.981; with Selisistat + Pemetrexed (first compound 4 µM) it was 1.01; in the test with Selisistat + Pemetrexed (first compound 12.65 µM) it was 0.967; with Selisistat + Pemetrexed (first compound 40 µM), 1.03.

In the case of SW 1573, the relative viability in the test with Serdemetan + Phenformin (first compound 0.04 µM) was 0.36; with Serdemetan + Phenformin (first compound 0.1265 µM) it was 0.334; with Serdemetan + Phenformin (first compound 0.4 µM), 0.289; in the test with Serdemetan + Phenformin (first compound 1.265 µM), 0.211; with Serdemetan + Phenformin (first compound 4 µM), 0.245; with Selisistat + Bortezomib (first compound 0.4 µM), 1.19. The relative viability was determined as 1.02 in the test with Selisistat + Bortezomib (first compound 1.265 µM); 1.03 in the test with Selisistat + Bortezomib (first compound 4 µM); 1.02 with Selisistat + Bortezomib (first compound 12.65 µM); 1.03 with Selisistat + Bortezomib (first compound 40 µM); 0.997 in the test with Selisistat + Navitoclax (first compound 0.4 µM); 0.781 with Selisistat + Navitoclax (first compound 1.265 µM). The relative viability with Selisistat + Navitoclax (first compound 4 µM) is 0.93; in the test with Selisistat + Navitoclax (first compound 12.65 µM) it was 1.15; in the test with Selisistat + Navitoclax (first compound 40 µM), 0.934; with Selisistat + Pemetrexed (first compound 0.4 µM) it was 0.798; with Selisistat + Pemetrexed (first compound 1.265 µM) it was 0.774; in the test with Selisistat + Pemetrexed (first compound 12.65 µM), 0.815. Further, in the test with Selisistat + Pemetrexed (first compound 40 µM), the relative viability was determined as 0.776.
